Experimental data from patent publication US9591848B2, “Biofilm resistant polymer materials” (Abilene Christian Univ., priority 2008, dated 2017).
“Also recorded” adds a separate entry of the source.

Assays:
[1] = test system: E. coli; experiment: Biofilm resistance of UV-cured coatings after E. coli growth and staining; format: cell-based; settings: for biofilm resistance (lack of blue coloring): 15 and 20 weight % monomer in the coating; for biofilm formation: 15 and 20 weight percent monomer, increased E. coli broth concentration, approaching 10^9 cells/mL
From the text: Materials and methods were the same as disclosed in the Examples 1 and 2, above, except that the polymers were not adhered to steel, but to 24-well, plastic (i.e., poly(styrene)) culture plates.
The coatings were applied to and UV-cured onto four uncoated 24-well plastic plates to a calculated thickness of two mils. The monomers of the compositions were phenyl acrylate (PA) as the non-biofilm resistant control monomer, 3-chlorophenyl acrylate (CPA), 2,4-dichlorophenyl acrylate (DCPA), 4-bromophenyl acrylate (BPA) and 2,4-dibromophenyl acrylate (DBPA).
The coatings were cured with the curing apparatus and sterilized with 95% ethanol. E. coli was grown in a LB agar broth and added to the cell plates with sterile, deionized water at four concentrations, one concentration per plate. The plates were incubated for twenty-four hours at 37° C. The E. coli was then rinsed from the plates with sterile, deionized water and sprayed with the cytology fixative [poly(ethylene glycol)-based]. After the fixative was air dried it was soaked with 95% ethanol for ten minutes for further sterilization. The plates were then rinsed with sterile, deionized water and four drops of Hema-diff solution were added for four seconds.

[2] = Roughness of cured coatings by atomic force microscopy (Sy, peak to valley distance); format: physicochemical; settings: 5, 10, 15 and 20 weight percent monomer in the coating; FIGS. 1 and 2
Description: To determine the roughness of the cured formulations, polymers consisting of each of five monomers were tested using atomic force microscopy (AFM) scanning and applying the non-contact mode dragging of the cantilever. Each of the polymers consisting of the monomers: phenyl acrylate (PA), 3-chlorophenyl acrylate (CPA), 2,4-dichlorophenyl acrylate (DCPA), 4-bromophenyl acrylate (BPA) and 2,4-dibromophenyl acrylate (DBPA) were tested at 5, 10, 15 and 20 percent of the monomer by weight (the “Coating Level”).
Each scanning location was approximately an 80 μm×80 μm area (6400 μm^2). To eliminate the effects of interference on the roughness measurements, two scans were taken at each location in the X and Y direction. These two roughness calculations were averaged to yield the roughness calculation for each location. Three locations were selected for each plate and then the average roughness was calculated for all three locations in order to minimize statistical variance yielding an overall plate roughness average, Sa as determined via Equation 1.
[formula] […] The following equation was used to determine the average peak to valley distance, Sy value, (Equation 2) for each composition at each coating level. Sy=Speak−Svalley Equation 2 The Sy value is the value typically used in the industry to determine the propensity for biofilm resistance of a smooth surface.

C=CC(=O)Oc1ccc(Cl)cc1Cl [DCPA, 2,4-dichlorophenyl acrylate]
biofilm resistance (lack of blue coloring) ([1]; FIG. 4): excellent biofilm resistance
biofilm formation [1]: no evidence of biofilm formation

C=CC(=O)Oc1cccc(Cl)c1 [CPA, 3-chlorophenyl acrylate]
biofilm resistance (lack of blue coloring) ([1]; FIG. 4): excellent biofilm resistance
biofilm formation [1]: no evidence of biofilm formation

C=CC(=O)Oc1ccc(Br)cc1Br [DBPA, 2,4-dibromophenyl acrylate]
biofilm resistance (lack of blue coloring) ([1]; FIG. 4): excellent biofilm resistance
biofilm formation [1]: no evidence of biofilm formation

C=CC(=O)Oc1ccccc1 [PA, phenyl acrylate, reference compound]
bacterial growth on the coating (blue tinting) ([1]; coating containing the internal control monomer, 24 h at 37° C., FIG. 4): bacterial growth
biofilm inhibitory activity ([1]; monomer without halogens, used as internal standard or control): no biofilm inhibitory activity; also recorded: biologically inactive
smoothness of the coating (Sy) [2]: did not enhance the smoothness
